The values that follow come from patent US20050267136A1, “Method of inhibiting dihydrofolate reductase; screening assay for the identification of novel therapeutics and their cellular targets” (McMaster University, priority 2003, published 2005).

Values after ≈ are worked out from the molar mass of the structure shown. Read-outs that look alike come from different tables or passages of the source.

In general, Ki refers to the equilibrium dissociation constant of an inhibitor or competing ligand from its target.

Experiment [1] deals with E. coli strain MC1061. Briefly: Duplicate screen of 1000 Maybridge compounds for growth inhibition. Format: cell-based, Escherichia coli. The note with it: 10 μL of 1 mM compound in 200 μL/well, 36 hours at 37° C., OD 600 nm. The method, then:
In addition to proof of principle work using well-characterized antibiotics a preliminary screen against a 1000 compound, non-proprietary commercial library from Maybridge (Cornwall, England) was also done. First the identification of compounds with activity against E. coli by screening for inhibition of growth was done. […] To each test well 10 μL of screening compound (1 mM in DMSO) was added and the plate incubated for 36 hours at 37° C. with shaking (150 rpm) before reading the optical density (600 nm). […] The result of this duplicate screen was the identification of 15 compounds with statistically significant antibacterial activity.

In experiment [2] the test system is E. coli strain MC1061. Nature of the experiment: Retest minimum inhibitory concentration on LB-ST agar. As to conditions: Escherichia coli, MC1061, read-out: Retest Minimum Inhibitory Concentration.
Experiment [3] relates to E. coli MC1061. Nature of the experiment: Minimum inhibitory concentration determination in LB broth. Format: cell-based, Escherichia coli.
Experiment [4] concerns E. coli CW2553 containing pAK01 and pBAD18-folA (strain EB492). As to conditions: increasing DHFR expression from pBAD18-folA.
For experiment [5], the target named is T1, E. coli DHFR (Escherichia coli, UniProt P0ABQ4).
T1 construct: The gene was cloned lacking a stop codon into NdeI and XhoI digested pET26b to form pET26b-folA; made in house
Nature of the experiment: Determination of kinetic inhibition constants. The note with it: NADPH 80 μM, dihydrofolate 10 to 300 μM, competitive inhibition. It is filed as biochemical.

The test system of experiment [6] is E. coli MC1061 clones harboring pGEM7-acrB. Format: cell-based, Escherichia coli. The note with it: from MIC in LB-Str-Amp, relative to E. coli MC1061 containing pGEM7.
Experiment [7] addresses T1, E. coli DHFR. Briefly: DHF reductase activity assay of recombinant E. coli DHFR (decrease of NADPH at 340 nm); primary screen and IC50 determination. As to conditions: true competitive inhibitor should equal 2.8. It is filed as biochemical.
Experiment [8] deals with MC1061 transformed with the genomic library (the screening pool). Format: cell-based, Escherichia coli. As to conditions: LB agar-ST; concentration lethal to MC1061.
Experiment [9] has as its system E. coli MC1061/pGEM7. Nature of the experiment: microbe, parasite or virus in culture. Format: cell-based, Escherichia coli. As to conditions: for MIC: Escherichia coli, MC1061/PGEM7, read-out: MIC, minimum growth inhibitory concentration.
Experiment [10] deals with S. cerevisiae DL1 (His, Leu, Ura)/pGAL. Briefly: MIC of compounds versus yeast. As to conditions: Saccharomyces cerevisiae; agar plates, 72 hours, read visually. Format: cell-based.
In experiment [11] the test system is E. coli MC1061 harboring a multicopy genomic library cloned into pGEM7. Nature of the experiment: Multicopy suppression selection with the selection pool, Example 5. It is filed as cell-based, Escherichia coli. As to conditions: LB-Str-Amp agar, 10^5 cells.
[12] abbreviates: Escherichia coli, MC1061, 16 hr at 37° C., OD600 less than 0.1, read-out: MIC.
Where [13] appears, read: 16 hr at 37° C., OD600 less than 0.1.

Take `Nc1nc(-c2ccc(-n3cccc3)cc2)cc(C(F)(F)F)n1` [BTB14887]: in experiment [1], the “Growth in Primary Screens, first value of the duplicate” value (from here on “Growth in Primary Screens, first value”) is 37% and the “Growth in Primary Screens, second value of the duplicate” value (“Growth in Primary Screens, second value” for short) came out at 30%. The MIC in experiment [2] is 125 µg/mL (≈ 411 µM).
For `Cc1ccc(Sc2cccc3nc(N)nc(N)c23)cc1` [Compound 1], in [3] (setting [12]), the MIC came to 8 µg/mL (≈ 28.3 µM).
For the compound `Nc1nc(N)c2c(Sc3ccc(Cl)cc3)cccc2n1` [Compound 2], the MIC worked out at 4.0 µg/mL (≈ 13.2 µM) in [3] (setting [13]) and 4 µg/mL (≈ 13.2 µM) in [3] (setting [12]).
Turning to `Nc1nc(N)c2c(Oc3ccc(F)cc3)cccc2n1` [Compound 3], the MIC in experiment [3] (setting [12]) is 16 µg/mL (≈ 59.2 µM).
For the compound `Cc1ccc(Oc2cccc3nc(N)nc(N)c23)cc1` [Compound 4], in experiment [4], the “dependence of the MIC on arabinose (inducer) concentration” value is “demonstrated an inducer dependence”. The MIC in experiment [3] (setting [13]) turned out to be 4.0 µg/mL (≈ 15 µM); in experiment [3] (setting [12]), 4 µg/mL (≈ 15 µM).
Take `CC1CCc2c(N)nc(N)nc2C1` (stereo not drawn) [Compound 6]: the Ki in experiment [5] turned out to be 1.1 µM. In addition, in [6], the “fold suppression by pGEM7-acrB” value came to 4 fold. Besides, in experiment [3] (setting [12]), the MIC came to 64 µg/mL (≈ 359 µM). For the same compound, the “IR, IC50 ratio (IC50 in the presence of 100 μM DHF) / (IC50 in the presence of 30 μM DHF)” value in experiment [7] is 2.3.
On to `N[C@@H]1CON=C1O` [Cycloserine, D-cycloserine], for which the “growth inhibitory concentration to which clones isolated from the screening pool were resistant” value in experiment [8] stood at 160 µg/mL. For the same compound, in experiment [9], the MIC is 80 µg/mL (≈ 784 µM).
On to `OC(Cn1cncn1)(Cn1cncn1)c1ccc(F)cc1F` [Fluconazole], for which the MIC in experiment [10] was 32 µg/mL.
As to `C[C@@H]1O[C@@H]1P(=O)(O)O` [Fosfomycin], the “growth inhibitory concentration to which clones isolated from the screening pool were resistant” value in experiment [8] was 320 µg/mL. Moreover, in [9], the MIC came to 80 µg/mL (≈ 579 µM).
Consider `O=C(Oc1c(Cl)cc(Cl)c2cccnc12)c1cccs1` [RH00852], for which, in experiment [1], the “Growth in Primary Screens, first value” value stood at 2.7% and the “Growth in Primary Screens, second value” value is 2.8%. The MIC in [2] was 16 µg/mL (≈ 49.4 µM).
As for `CSC(=N)NC(=S)Nc1cccc(Cl)c1` [RJF01047], in experiment [1], the “Growth in Primary Screens, first value” value came out at 6.0% and the “Growth in Primary Screens, second value” value was 12%. The MIC in experiment [2] worked out at 125 µg/mL (≈ 481 µM).
For `N#CC(C#N)=NNc1cc(C(F)(F)F)cc(C(F)(F)F)c1` [SEW04978], the “growth inhibitory concentration to which clones isolated from the screening pool were resistant” value in [8] came to 64 µg/mL. Moreover, in experiment [1], the “Growth in Primary Screens, first value” value turned out to be 0.2% and the “Growth in Primary Screens, second value” value is reported as 0.02%. Moreover, the MIC in experiment [2] was 32 µg/mL (≈ 105 µM).
Consider `Clc1ccc(Cc2n[nH]cc2Sc2ccc(Cl)cc2)cc1` [SPB04137], for which, in experiment [1], the “Growth in Primary Screens, first value” value was found to be 2.3% and the “Growth in Primary Screens, second value” value stood at 2.1%. In addition, the MIC in experiment [2] is 500 µg/mL (≈ 1490 µM).
For the compound `COc1cc(Cc2cnc(N)nc2N)cc(OC)c1OC` [Trimethoprim], the MIC was 0.078 µg/mL (≈ 0.269 µM) in [9] and 0.03 µg/mL (≈ 0.103 µM) in experiment [3] (setting [12]). The “MIC, minimum growth inhibitory concentration” value in [9] (LB agar containing ampicillin (50 μg/mL) and streptomycin (50 μg/mL)) was found to be 0.078 µg/mL (≈ 0.269 µM). Further, the “concentration at which suppressor clones were evident” value in experiment [11] is 0.64 µg/mL.
